According to US4552879A, “Benzoheterocyclic compounds and pharmaceutical composition thereof” (Otsuka Pharmaceutical Co., Ltd., priority 1980, dated 1985):
≈ marks a conversion by molar mass, not a printed value. Where two headings read alike, the source gives them in different places.

Legend:
Test in all cases: Minimum inhibitory concentration, serial dilution method on agar plate
Format in all cases: cell-based
[1] = test system: Salmonella typhi 0-901 (NCTC 8393); conditions: Salmonella enterica
[2] = test system: Pseudomonas aeruginosa E-2; conditions: for MIC: Pseudomonas aeruginosa
[3] = test system: Staphylococcus aureus FDA 209 P; conditions: for MIC: Staphylococcus aureus
[4] = test system: Pseudomonas putida 12996
[5] = test system: Klebsiella pneumoniae
[6] = test system: Escherichia Coli NIHJ JC-2 (IFO 12734)
[7] = test system: Streptococcus pyogenes IID S-23; conditions: for MIC: Streptococcus pyogenes
[8] = test system: Shigella sonnei EW 33
Protocol: The antimicrobial activity of the following test compounds on various test organisms listed below was determined by the serial dilution method on agar plate (Heart Infusion agar produced by Difco Co.) (see CHEMOTHERAPY 22, pp. 1126-1128 (1974)), and the minimum inhibitory concentrations (mcg/ml) obtained are shown in Tables 1, 2 and 3 below.
A sample of each test organism was prepared so that the population of the organism was 1×10^8 cells/ml (O.D. 660 mμ=0.07 to 0.16) and 1×10^6 cells/ml (which was obtained by diluting 100 fold the above 1×10^8 cells/ml preparation).

[9] = test system: Serratia marcescens IFO 12648
[10] = test system: Pseudomonas aeruginosa ATCC 10145; conditions: for MIC: Pseudomonas aeruginosa
[11] = test system: Proteus rettgeri NIH 96; conditions: Providencia rettgeri
[12] = test system: Pseudomonas aeruginosa NCTC 10490
[13] = read-out: Minimum Inhibitory Concentration, 1×10^6 cells/ml
[14] = read-out: Minimum Inhibitory Concentration, 1×10^8 cells/ml
[15] = E2, 1×10^6 cells/ml, read-out: Minimum Inhibitory Concentration
[16] = E2, 1×10^8 cells/ml, read-out: Minimum Inhibitory Concentration
[17] = FDA209, 1×10^6 cells/ml, read-out: Minimum Inhibitory Concentration
[18] = FDA209, 1×10^8 cells/ml, read-out: Minimum Inhibitory Concentration
[19] = Pseudomonas putida, 12996, 1×10^6 cells/ml, read-out: Minimum Inhibitory Concentration
[20] = Pseudomonas putida, 12996, 1×10^8 cells/ml, read-out: Minimum Inhibitory Concentration
[21] = 1×10^6 cells/ml, read-out: Minimum Inhibitory Concentration
[22] = 1×10^8 cells/ml, read-out: Minimum Inhibitory Concentration
[23] = IIDS23, 1×10^6 cells/ml, read-out: Minimum Inhibitory Concentration
[24] = IIDS23, 1×10^8 cells/ml, read-out: Minimum Inhibitory Concentration
[25] = IFO12648, 1×10^6 cells/ml, read-out: Minimum Inhibitory Concentration
[26] = IFO12648, 1×10^8 cells/ml, read-out: Minimum Inhibitory Concentration
[27] = ATCC10145, 1×10^6 cells/ml, read-out: Minimum Inhibitory Concentration
[28] = ATCC10145, 1×10^8 cells/ml, read-out: Minimum Inhibitory Concentration
[29] = NIH96, read-out: Minimum Inhibitory Concentration, 1×10^6 cells/ml
[30] = NIH96, read-out: Minimum Inhibitory Concentration, 1×10^8 cells/ml
[31] = NIH96, 1×10^8 cells/ml, read-out: Minimum Inhibitory Concentration
[32] = NIH96, 1×10^6 cells/ml, read-out: Minimum Inhibitory Concentration

SMILES	MIC [1, 13]	MIC [1, 14]	MIC [2, 15]	MIC [2, 16]	MIC [3, 17]	MIC [3, 18]	MIC [4, 19]	MIC [4, 20]	MIC [5, 21]	MIC [5, 22]	MIC [6, 21]	MIC [6, 22]	MIC [7, 23]	MIC [7, 24]	MIC ([8]; EW33, 1×10^6 cells/ml)	MIC ([8]; EW33, 1×10^8 cells/ml)	MIC [9, 25]	MIC [9, 26]	MIC [10, 27]	MIC [10, 28]	further results
CC(=O)OC1CCN(c2c(F)cc3c(=O)c(C(=O)O)cn4c3c2CCC4C)CC1 (stereo not drawn) [Compound 3, 9-Fluoro-8-(4-acetyloxy-1-piperidyl)-5-methyl-6,7-dihydro-1-oxo-1H,5H-benzo[ij]quinolizine-2-carboxylic acid]	0.1 µg/mL (≈ 0.248 µM)	0.1 µg/mL (≈ 0.248 µM)	6.25 µg/mL (≈ 15.5 µM)	6.25 µg/mL (≈ 15.5 µM)	0.05 µg/mL (≈ 0.124 µM)	0.05 µg/mL (≈ 0.124 µM)	6.25 µg/mL (≈ 15.5 µM)	6.25 µg/mL (≈ 15.5 µM)	0.39 µg/mL (≈ 0.969 µM)	0.39 µg/mL (≈ 0.969 µM)	0.39 µg/mL (≈ 0.969 µM)	0.39 µg/mL (≈ 0.969 µM)	0.78 µg/mL (≈ 1.94 µM)	0.78 µg/mL (≈ 1.94 µM)	0.2 µg/mL (≈ 0.497 µM)	0.2 µg/mL (≈ 0.497 µM)	1.56 µg/mL (≈ 3.88 µM)	3.13 µg/mL (≈ 7.78 µM)	3.13 µg/mL (≈ 7.78 µM)	6.25 µg/mL (≈ 15.5 µM)	MIC [11, 29]: 0.2 µg/mL (≈ 0.497 µM); MIC [11, 30]: 0.2 µg/mL (≈ 0.497 µM)
CC1CCc2c(N3CCC(N(C)C)CC3)c(F)cc3c(=O)c(C(=O)O)cn1c23 (stereo not drawn) [Compound 5, 9-Fluoro-8-(4-dimethylamino-1-piperidyl)-5-methyl-6,7-dihydro-1-oxo-1H,5H-benzo[ij]quinolizine-2-carboxylic acid]	0.2 µg/mL (≈ 0.516 µM)	0.2 µg/mL (≈ 0.516 µM)	6.25 µg/mL (≈ 16.1 µM)	6.25 µg/mL (≈ 16.1 µM)	0.05 µg/mL (≈ 0.129 µM)	0.05 µg/mL (≈ 0.129 µM)	6.25 µg/mL (≈ 16.1 µM)	6.25 µg/mL (≈ 16.1 µM)					0.39 µg/mL (≈ 1.01 µM)	0.78 µg/mL (≈ 2.01 µM)	0.2 µg/mL (≈ 0.516 µM)	0.2 µg/mL (≈ 0.516 µM)	0.78 µg/mL (≈ 2.01 µM)	1.56 µg/mL (≈ 4.03 µM)	3.13 µg/mL (≈ 8.08 µM)	6.25 µg/mL (≈ 16.1 µM)	MIC [5, 13]: 0.1 µg/mL (≈ 0.258 µM); MIC [5, 14]: 0.2 µg/mL (≈ 0.516 µM); MIC [6, 13]: 0.2 µg/mL (≈ 0.516 µM); MIC [6, 14]: 0.2 µg/mL (≈ 0.516 µM); MIC [11, 31]: 0.39 µg/mL (≈ 1.01 µM); MIC [11, 29]: 0.2 µg/mL (≈ 0.516 µM)
CC1CCc2c(N3CCOCC3)c(F)cc3c(=O)c(C(=O)O)cn1c23 (stereo not drawn) [Compound 2, 9-Fluoro-8-morpholino-5-methyl-6,7-dihydro-1-oxo-1H,5H-benzo[ij]quinolizine-2-carboxylic acid]	0.05 µg/mL (≈ 0.144 µM)	0.1 µg/mL (≈ 0.289 µM)	3.13 µg/mL (≈ 9.04 µM)	6.25 µg/mL (≈ 18 µM)	0.025 µg/mL (≈ 0.0722 µM)	0.05 µg/mL (≈ 0.144 µM)	3.13 µg/mL (≈ 9.04 µM)	6.25 µg/mL (≈ 18 µM)					0.78 µg/mL (≈ 2.25 µM)	0.78 µg/mL (≈ 2.25 µM)	0.1 µg/mL (≈ 0.289 µM)	0.1 µg/mL (≈ 0.289 µM)	0.39 µg/mL (≈ 1.13 µM)	0.78 µg/mL (≈ 2.25 µM)	3.13 µg/mL (≈ 9.04 µM)	3.13 µg/mL (≈ 9.04 µM)	MIC [5, 13]: 0.2 µg/mL (≈ 0.577 µM); MIC [5, 14]: 0.2 µg/mL (≈ 0.577 µM); MIC [6, 13]: 0.1 µg/mL (≈ 0.289 µM); MIC [6, 14]: 0.2 µg/mL (≈ 0.577 µM); MIC [11, 32]: 0.05 µg/mL (≈ 0.144 µM); MIC [11, 30]: 0.1 µg/mL (≈ 0.289 µM)
CC1Cc2c(N3CCCC3)c(F)cc3c(=O)c(C(=O)O)cn1c23 (stereo not drawn) [Compound 6, 9-(1-Pyrrolidinyl)-8-fluoro-2-methyl-1,2-dihydro-6-oxo-pyrrolo[3,2,1-ij]quinoline-5-carboxylic acid]	0.1 µg/mL (≈ 0.316 µM)	0.1 µg/mL (≈ 0.316 µM)	1.56 µg/mL (≈ 4.93 µM)	1.56 µg/mL (≈ 4.93 µM)	0.024 µg/mL (≈ 0.0759 µM)	0.024 µg/mL (≈ 0.0759 µM)			0.2 µg/mL (≈ 0.632 µM)	0.2 µg/mL (≈ 0.632 µM)	0.2 µg/mL (≈ 0.632 µM)	0.39 µg/mL (≈ 1.23 µM)	0.78 µg/mL (≈ 2.47 µM)	0.78 µg/mL (≈ 2.47 µM)	0.024 µg/mL (≈ 0.0759 µM)	0.05 µg/mL (≈ 0.158 µM)	0.39 µg/mL (≈ 1.23 µM)	0.78 µg/mL (≈ 2.47 µM)	1.56 µg/mL (≈ 4.93 µM)	1.56 µg/mL (≈ 4.93 µM)	Minimum Inhibitory Concentration ([12]; 1×10^6 cells/ml): 1.56 µg/mL; MIC ([12]; Pseudomonas aeruginosa, NCTC10490, 1×10^8 cells/ml): 1.56 µg/mL (≈ 4.93 µM); MIC [11, 32]: 0.05 µg/mL (≈ 0.158 µM); MIC [11, 31]: 0.1 µg/mL (≈ 0.316 µM)
CCn1cc(C(=O)O)c(=O)c2ccc(C)nc21 [Compound 9, 1-Ethyl-1,4-dihydro-7-methyl-4-oxo-1,8-naphthyridine-3-carboxylic acid, reference compound]	3.13 µg/mL (≈ 13.5 µM)	3.13 µg/mL (≈ 13.5 µM)													3.13 µg/mL (≈ 13.5 µM)	3.13 µg/mL (≈ 13.5 µM)					Minimum Inhibitory Concentration ([2]; 1×10^6 cells/ml): > 100 µg/mL; MIC ([2]; E2, read-out: Minimum Inhibitory Concentration): > 100 µg/mL; Minimum Inhibitory Concentration ([3]; 1×10^6 cells/ml): 50 µg/mL; MIC ([3]; FDA209, read-out: Minimum Inhibitory Concentration): 50 µg/mL (≈ 215 µM); Minimum Inhibitory Concentration ([4]; 1×10^6 cells/ml): > 100 µg/mL; MIC ([4]; Pseudomonas putida, 12996, read-out: Minimum Inhibitory Concentration): > 100 µg/mL; MIC [5, 13]: 1.56 µg/mL (≈ 6.72 µM); MIC [5, 14]: 1.56 µg/mL (≈ 6.72 µM); MIC [6, 13]: 3.13 µg/mL (≈ 13.5 µM); MIC [6, 14]: 3.13 µg/mL (≈ 13.5 µM); Minimum Inhibitory Concentration ([7]; 1×10^6 cells/ml): > 100 µg/mL; MIC ([7]; IIDS23, read-out: Minimum Inhibitory Concentration): > 100 µg/mL; MIC ([9]; IFO12648, read-out: Minimum Inhibitory Concentration, 1×10^6 cells/ml): 3.13 µg/mL (≈ 13.5 µM); MIC ([9]; IFO12648, read-out: Minimum Inhibitory Concentration, 1×10^8 cells/ml): 3.13 µg/mL (≈ 13.5 µM); Minimum Inhibitory Concentration ([10]; 1×10^6 cells/ml): > 100 µg/mL; MIC ([10]; ATCC10145, read-out: Minimum Inhibitory Concentration): > 100 µg/mL; MIC [11, 29]: 1.56 µg/mL (≈ 6.72 µM); MIC [11, 30]: 1.56 µg/mL (≈ 6.72 µM)
CC1CCc2c(N3CCCCC3)c(F)cc3c(=O)c(C(=O)O)cn1c23 (stereo not drawn) [Compound 4, 9-Fluoro-8-(1-piperidyl)-5-methyl-6,7-dihydro-1-oxo-1H,5H-benzo[ij]quinolizine-2-carboxylic acid]	0.39 µg/mL (≈ 1.13 µM)	0.39 µg/mL (≈ 1.13 µM)	12.5 µg/mL (≈ 36.3 µM)	25 µg/mL (≈ 72.6 µM)	0.05 µg/mL (≈ 0.145 µM)	0.05 µg/mL (≈ 0.145 µM)	25 µg/mL (≈ 72.6 µM)	25 µg/mL (≈ 72.6 µM)	1.56 µg/mL (≈ 4.53 µM)	1.56 µg/mL (≈ 4.53 µM)	1.56 µg/mL (≈ 4.53 µM)	1.56 µg/mL (≈ 4.53 µM)	0.78 µg/mL (≈ 2.26 µM)	1.56 µg/mL (≈ 4.53 µM)	0.78 µg/mL (≈ 2.26 µM)	0.78 µg/mL (≈ 2.26 µM)	6.25 µg/mL (≈ 18.1 µM)	12.5 µg/mL (≈ 36.3 µM)	12.5 µg/mL (≈ 36.3 µM)	12.5 µg/mL (≈ 36.3 µM)	MIC [11, 32]: 1.56 µg/mL (≈ 4.53 µM); MIC [11, 31]: 1.56 µg/mL (≈ 4.53 µM)
